Earlier results on two compounds are cited in patent JPH06128153A, “トラニラスト軟膏組成物およびその製造方法” (Kissei Pharmaceutical Co Ltd, priority 1992, dated 1994).

Read-outs that look alike come from different tables or passages of the source.

For this series the following is noted: stated as known, no test described.

Regarding `COc1ccc(/C=C/C(=O)Nc2ccccc2C(=O)O)cc1OC` [トラニラスト], the solubility in water result is recorded as “極めて難溶”.
For `COc1ccc(/C=C/C(=O)Nc2ccccc2C(=O)O)cc1OC` [ナトリウム塩], where the note is “ナトリウム塩”, the solubility in water entry is given as “わずかしか溶解しない”.
